Results: ChEMBL document CHEMBL1201862, “PubChem BioAssay data set” (2004)
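96-well plates; 48 h exposure; 5 concentrations. Endpoints by linear interpolation between flanking doses. Not reached: highest tested concentration assigned. At the GI50, growth is halved.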 The source made the active and inactive calls. No stated cut-off is given here; in the data, active = GI50 up to about 1.1 µM and inactive = higher.

Columns and labels:
Test in all cases: NCI anticancer screen, dose series, 48 h
KM12 = test system: KM12
A498 = test system: A498
NCI-H522 = test system: NCI-H522
SK-MEL-28 = test system: SK-MEL-28
UO-31 = test system: UO-31
HCT-116 = test system: HCT-116
MDA-MB-231 = test system: MDA-MB-231
TK-10 = test system: TK-10
IGROV-1 = test system: IGROV-1
HCT-15 = test system: HCT-15
OVCAR-5 = test system: OVCAR-5
PC-3 = test system: PC-3
CCRF-CEM = test system: CCRF-CEM
SF-539 = test system: SF-539
U-251 = test system: U-251
OVCAR-3 = test system: OVCAR-3
MDA-N = test system: MDA-N
SR = test system: SR
SK-MEL-2 = test system: SK-MEL-2
K562 = test system: K562

Compound | GI50 (KM12) | GI50 (A498) | GI50 (NCI-H522) | GI50 (SK-MEL-28) | GI50 (UO-31) | GI50 (HCT-116) | GI50 (MDA-MB-231) | GI50 (TK-10) | GI50 (IGROV-1) | GI50 (HCT-15) [µM] | GI50 (OVCAR-5) | GI50 (PC-3) | GI50 (CCRF-CEM) | GI50 (SF-539) | GI50 (U-251) | GI50 (OVCAR-3) | GI50 (MDA-N) | GI50 (SR) | GI50 (SK-MEL-2) | GI50 (K562)
COc1ccc(/C=C2\CCC(CNc3ccc(OC)cc3)C2=O)cc1 (stereo unspecified) | 10.5 µM (inactive) | 30.1 µM (inactive) | 5.58 µM (inactive) | 18.9 µM (inactive) | 17.9 µM (inactive) | 11 µM (inactive) | 17.8 µM (inactive) | 15.6 µM (inactive) | 13.9 µM (inactive) | 6.78 | 18.5 µM (inactive) | 16.8 µM (inactive) | 3.37 µM (inactive) | 20.4 µM (inactive) | 18.7 µM (inactive) | 17.4 µM (inactive) | 14.1 µM (inactive) |  |  | 
Cc1ccc(-c2cc(-c3ccco3)c(C#N)c(=O)n2C2OC(OC(=O)c3ccccc3)C(OC(=O)c3ccccc3)C2OC(=O)c2ccccc2)cc1 (stereo unspecified) | > 100 µM (inactive) | > 100 µM (inactive) | 62.8 µM (inactive) | > 100 µM (inactive) | > 100 µM (inactive) | 32.1 µM (inactive) |  | 96.2 µM (inactive) | 42.8 µM (inactive) | > 100 | > 100 µM (inactive) |  | > 100 µM (inactive) | > 100 µM (inactive) | 0.925 µM (active) | 39.2 µM (inactive) |  | > 100 µM (inactive) | > 100 µM (inactive) | > 100 µM (inactive)
CC1(C)CC2(C)OC(=N)C1(C#N)C2(C#N)C#N (stereo unspecified) | 16 µM (inactive) | 15.2 µM (inactive) | 2.44 µM (inactive) |  | 4.26 µM (inactive) | 7.46 µM (inactive) | 8.83 µM (inactive) | 10.8 µM (inactive) | 15 µM (inactive) | 2.36 | 14.3 µM (inactive) | 16.1 µM (inactive) |  | 12.1 µM (inactive) | 13.6 µM (inactive) |  | 7.08 µM (inactive) |  | 17.4 µM (inactive) | 6.93 µM (inactive)
O=C1CCC[C@]2(CCCC(=O)N2)C1 | > 100 µM (inactive) | > 100 µM (inactive) | > 100 µM (inactive) | > 100 µM (inactive) | > 100 µM (inactive) | > 100 µM (inactive) |  | > 100 µM (inactive) | > 100 µM (inactive) | > 100 | > 100 µM (inactive) |  | > 100 µM (inactive) | > 100 µM (inactive) | > 100 µM (inactive) | > 100 µM (inactive) |  | > 100 µM (inactive) | > 100 µM (inactive) | > 100 µM (inactive)
COC1=CC(=O)C(O)=C(CC2(C)C(C)CCC3(C)C2CCCC3(C)C)C1=O (stereo unspecified) | 6.44 µM (inactive) | 10.1 µM (inactive) | 2.7 µM (inactive) | 4.43 µM (inactive) | 4.49 µM (inactive) | 5.12 µM (inactive) |  | 4.97 µM (inactive) | 5.2 µM (inactive) | 3.3 | 10.3 µM (inactive) |  | 1.91 µM (inactive) | 2.84 µM (inactive) | 2.44 µM (inactive) | 5.43 µM (inactive) |  | 3.11 µM (inactive) | 3.06 µM (inactive) | 2.7 µM (inactive)
C=CCC(C(=O)OC)C1(C(=O)OC)c2[nH]c3ccccc3c2CCN1Cc1ccccc1 (stereo unspecified) | > 100 µM (inactive) | 54.6 µM (inactive) | > 100 µM (inactive) | > 100 µM (inactive) | 53.3 µM (inactive) | 69.5 µM (inactive) |  | > 100 µM (inactive) | > 100 µM (inactive) | > 100 | > 100 µM (inactive) |  | 29.8 µM (inactive) | > 100 µM (inactive) | 64.4 µM (inactive) | > 100 µM (inactive) |  | 6.68 µM (inactive) | > 100 µM (inactive) | > 10 µM (inactive)
CC1=C(N2CC2)C(=O)c2nc3n(c2C1=O)CCC3O (stereo unspecified) | 0.233 µM (active) | 0.205 µM (active) | 0.145 µM (active) | 0.252 µM (active) | 0.388 µM (active) | 0.193 µM (active) |  | 0.09 µM (active) | 0.461 µM (active) | 13.6 | 0.423 µM (active) |  | 1.36 µM (inactive) | 0.254 µM (active) | 0.157 µM (active) | 0.275 µM (active) |  | 2.25 µM (inactive) | 0.7 µM (active) | 0.472 µM (active)
CC1OC(O[C@H]2C3C=CO[C@@H](OC4OC(CO)C(O)C(O)C4O)C3[C@@]3(COC(=O)/C=C/c4ccccc4)O[C@@H]23)C(O)C(O)C1O (stereo partly specified) | > 100 µM (inactive) | > 100 µM (inactive) | > 100 µM (inactive) | > 100 µM (inactive) | > 100 µM (inactive) | > 100 µM (inactive) | > 100 µM (inactive) | > 100 µM (inactive) | > 100 µM (inactive) | > 100 | > 100 µM (inactive) | > 100 µM (inactive) | > 100 µM (inactive) |  | > 100 µM (inactive) | > 100 µM (inactive) | > 100 µM (inactive) |  | > 100 µM (inactive) | > 100 µM (inactive)
CC1(C)C=N[N+]2(C)C3C=CC(CC3)C12 (stereo unspecified) | > 100 µM (inactive) | > 100 µM (inactive) | > 100 µM (inactive) | > 100 µM (inactive) | > 100 µM (inactive) | > 100 µM (inactive) |  | > 100 µM (inactive) | > 100 µM (inactive) | > 100 | > 100 µM (inactive) |  | > 100 µM (inactive) | > 100 µM (inactive) | > 100 µM (inactive) | > 100 µM (inactive) |  | > 100 µM (inactive) | > 100 µM (inactive) | > 100 µM (inactive)
Cc1c(Cl)ccc2c1NC(=O)C2(O)CC(=O)c1cccc2ccccc12 (stereo unspecified) | 41.9 µM (inactive) | 69.5 µM (inactive) | 43.8 µM (inactive) | > 100 µM (inactive) | > 100 µM (inactive) | 69.5 µM (inactive) |  | > 100 µM (inactive) | > 100 µM (inactive) | 78.5 | > 100 µM (inactive) |  | 40.3 µM (inactive) | > 100 µM (inactive) | 44.7 µM (inactive) | 78.3 µM (inactive) |  | 24.1 µM (inactive) | > 100 µM (inactive) | 85.5 µM (inactive)
CCCCNC(=S)N/C=C1\C(=O)Nc2ccccc2C1=O | > 10 µM (inactive) | > 10 µM (inactive) |  | > 10 µM (inactive) | > 10 µM (inactive) |  | > 10 µM (inactive) | > 10 µM (inactive) | > 10 µM (inactive) | > 10 | > 10 µM (inactive) | > 10 µM (inactive) | > 10 µM (inactive) | > 10 µM (inactive) | > 10 µM (inactive) | > 10 µM (inactive) |  | > 10 µM (inactive) |  | > 10 µM (inactive)
CC1CCC(C(C)C2C(O)CC3C4CC=C5CC(O)CCC5(C)C4CCC32C)NC1 (stereo unspecified) |  | > 100 µM (inactive) | 63 µM (inactive) | > 100 µM (inactive) | 41.4 µM (inactive) | 45.3 µM (inactive) | 24.7 µM (inactive) | 14.5 µM (inactive) |  | 44 | 89.7 µM (inactive) | 26.9 µM (inactive) |  | 34.2 µM (inactive) | 24.4 µM (inactive) |  |  |  | > 100 µM (inactive) | 39.2 µM (inactive)
CNc1ccc([S+]([O-])Nc2ccccc2)cc1 (stereo unspecified) | 21.8 µM (inactive) |  | 19 µM (inactive) | > 100 µM (inactive) | 23.9 µM (inactive) | 40.2 µM (inactive) | 46.1 µM (inactive) | > 100 µM (inactive) | 41.6 µM (inactive) | 43.9 | > 100 µM (inactive) |  | > 100 µM (inactive) | > 100 µM (inactive) | 36.2 µM (inactive) | 51.4 µM (inactive) | 46.1 µM (inactive) | 38.2 µM (inactive) | 86.3 µM (inactive) | 34.8 µM (inactive)
CC(C)(C)CN1[C@@H]2CCCC[C@H]2N(CC(C)(C)C)P1(=O)C(O)/C=C/c1ccccc1 (stereo partly specified) | 33.7 µM (inactive) | 28.6 µM (inactive) | 26.7 µM (inactive) | 76.7 µM (inactive) | 29.5 µM (inactive) | 29.8 µM (inactive) | 45.9 µM (inactive) | 50.4 µM (inactive) | 25.6 µM (inactive) | 18.5 | 50.4 µM (inactive) | 37.8 µM (inactive) | 34.3 µM (inactive) |  | 41.4 µM (inactive) | 34.6 µM (inactive) | 35.3 µM (inactive) |  | 33.3 µM (inactive) | 42.6 µM (inactive)
CNCC(=O)Nc1ccc2c(c1)C(=O)c1ccc(NC(=O)CNC)cc1C2=O | 0.767 µM (active) | 14.9 µM (inactive) | 1.59 µM (inactive) | 2.54 µM (inactive) | 11.8 µM (inactive) | 1.81 µM (inactive) |  | 17.3 µM (inactive) | 16.6 µM (inactive) | 7.62 | 17.5 µM (inactive) |  | 2.74 µM (inactive) | 3.1 µM (inactive) | 2.7 µM (inactive) | 3.05 µM (inactive) |  | 1.96 µM (inactive) | 3.66 µM (inactive) | 1.96 µM (inactive)
COP(C)(=O)C1=CCN(C(=O)OCC[Si](C)(C)C)CC1 (stereo unspecified) | > 100 µM (inactive) | > 100 µM (inactive) | > 100 µM (inactive) | > 100 µM (inactive) | > 100 µM (inactive) |  | > 100 µM (inactive) | > 100 µM (inactive) | > 100 µM (inactive) | > 100 | > 100 µM (inactive) | > 100 µM (inactive) | > 100 µM (inactive) |  | > 100 µM (inactive) | > 100 µM (inactive) | > 100 µM (inactive) |  | > 100 µM (inactive) | 
O=C1CCC(c2ccccc2)C(O)(C(=O)O)C1 (stereo unspecified) | > 100 µM (inactive) | > 100 µM (inactive) | > 100 µM (inactive) | > 100 µM (inactive) | > 100 µM (inactive) | > 100 µM (inactive) |  | > 100 µM (inactive) | > 100 µM (inactive) | > 100 | > 100 µM (inactive) |  | > 100 µM (inactive) | > 100 µM (inactive) | > 100 µM (inactive) | > 100 µM (inactive) |  | > 100 µM (inactive) | > 100 µM (inactive) | > 100 µM (inactive)
